One experiment concerns X4 HIV-1 strains. As to the method:
(§1) Antiviral screening was performed using the X4 HIV-1 NL4-3 molecular clone.
(§2) HIV-1, HIV-2 and SIV molecular clones differing in coreceptor tropism were generated by transient transfection of 293T cells with proviral DNA by the calcium phosphate method (CalPhos™ Mammalian Transfection Kit, Clon-tech). After overnight incubation, the transfection mixture was replaced by DMEM medium supplemented with 10% FCS, and virus stocks were harvested 48 hrs post-transfection. Subsequently, the culture supernatant was centrifuged for 5 min at 3000 rpm to remove cell debris. The resulting virus stock was quantified by p24 (HIV) or p27 (SIV) antigen ELISA. Virus stocks were either used immediately or stored in aliquots at −80° C.
(§3) TZM-bl reporter cells containing the LacZ reporter gene under the control of the HIV-1 promoter were seeded in 96-well F-bottom microtiter plates (Greiner Bio-One). On the following day, the cells were preincubated with various dilutions of the peptide of SEQ ID NO 16 or its derivatives for 1 hour and subsequently infected with HIV-1, HIV-2, and SIV. Infection rates were determined after 2 days using the one-step Tropix Gal-Screen Kit, as recommended by the manufacturer.

For experiment [1], the target named is T1, CXCR4 (Homo sapiens, UniProt P61073).
T1 construct: expressed in transfected cells
The experiment is described as follows: Competition with CXCL12 binding to CXCR4 (real-time fluorescence, eGFP-CXCR4 cells). As to the method:
Anti-human CXCR4 (clone 12G5, IgG2a) or anti-human CXCR7 (clone 9C4) monoclonal antibodies (mAbs) were purchased from R&D Systems (Minneapolis, Minn.). […] The human chemokines CXCL12 and CXCL12-TexasRed were synthesized as described (Valenzuela-Fernandez, et al. 2001). The human chemokine CXCL11 was purchased from Clinisciences SAS (France).
Experiments were performed using cells stably expressing eGFP-CXCR4, suspended in HEPES-bovine serum albumin buffer (10 mM HEPES, 137.5 mM NaCl, 1.25 mM MgCl2, 1.25 mM CaCl2, 6 mM KCl, 10 mM glucose, 0.4 mM NaH2PO4, 0.1% bovine serum albumin (w/v), pH 7.4) (typically at 10^6 cells/mL). Time-based recordings of the fluorescence emitted at 510 nm (excitation at 470 nm) were performed at 21° C. using a spectrofluorimeter and sampled every 0.3 s. Fluorescence binding measurements were initiated by adding at 30 s 100 nM of CXCL12-TR to the 1 mL cell suspension. For competition experiments, EGFP-CXCR4 expressing cells were preincubated for 10 min in the absence or presence of various concentrations of unlabelled drugs. Then, CXCL12-TR (100 nM) was added and fluorescence was recorded until equilibrium was reached (300 s). Data were analyzed using Kaleidagraph 3.08 software (Synergy Software, Reading, Pa., USA).

Experiment [2] addresses T2, CXCR4 (Mus musculus, UniProt P70658).
T2 construct: from tissue; host or cells: live mice (C57Bl/6J for mobilization)
The experiment is described as follows: Asthma mouse model (OVA challenge). The experiment is classed as in vivo. The settings on record: mice, i.p., allergen challenge with OVA. As to the method:
Mice were sensitized by intraperitoneal (i.p.) injection on days 0, 1 and 2 of 50 μg ovalbumin (OVA, Sigma-Aldrich, A5503) adsorbed on 2 mg aluminium hydroxide (Sigma-Aldrich, 23918-6) in saline. Mice were challenged by intranasal (i.n.) instillation of 10 μg OVA in 25 μl saline (12.5 μl/nostril) or saline alone for control mice on days 5, 6 and 7 under anesthesia (50 mg/kg ketamine and 3.3 mg/kg xylazine, i.p.). the peptide of SEQ ID NO 16 or ALB409-423 in saline were administered i.p. (16 μmol/kg) two hours before each OVA challenge. Bronchoalveolar lavage (BAL) and differential cell counts were performed 24 h after the last OVA challenge as previously reported in (Rebber et al., 2012).

In another experiment the test system is X4 tropic HIV-1 NL4-3. Particulars: blocking X4 tropic HIV-1 NL4-3 infection. The protocol:
as §1, §2, §3

Positions of bridges follow the written chain, without caps; N, C: chain ends. Residues, ends and D or L forms follow the SMILES beside them. Chains are numbered I, II in the order given. No end group written: not given here.

T2 sequence (P70658 whole entry): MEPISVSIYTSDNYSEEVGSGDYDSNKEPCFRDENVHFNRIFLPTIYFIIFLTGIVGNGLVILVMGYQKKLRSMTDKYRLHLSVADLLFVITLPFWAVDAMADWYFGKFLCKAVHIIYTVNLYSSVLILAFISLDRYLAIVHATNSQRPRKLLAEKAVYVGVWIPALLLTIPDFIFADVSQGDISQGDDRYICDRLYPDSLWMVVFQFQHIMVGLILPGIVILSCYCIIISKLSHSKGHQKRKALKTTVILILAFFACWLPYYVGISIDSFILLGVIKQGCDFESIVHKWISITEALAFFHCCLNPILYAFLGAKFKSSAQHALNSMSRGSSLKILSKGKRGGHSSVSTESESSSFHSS
T1 sequence (P61073 whole entry): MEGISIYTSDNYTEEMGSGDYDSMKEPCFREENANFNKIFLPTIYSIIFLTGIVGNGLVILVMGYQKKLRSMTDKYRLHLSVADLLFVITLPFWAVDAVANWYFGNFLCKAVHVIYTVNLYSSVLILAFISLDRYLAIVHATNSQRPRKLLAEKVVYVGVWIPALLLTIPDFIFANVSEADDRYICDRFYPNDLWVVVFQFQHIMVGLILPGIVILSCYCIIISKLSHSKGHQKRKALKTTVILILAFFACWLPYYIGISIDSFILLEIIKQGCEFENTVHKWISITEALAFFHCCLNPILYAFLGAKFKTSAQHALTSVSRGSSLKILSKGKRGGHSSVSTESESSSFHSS

Turning to “HSA precursor: highly abundant HSA precursor; the most abundant protein in human plasma, of which the SEQ ID NO 16 peptide is a fragment”, the antiretroviral effect result with X4 HIV-1 strains is listed as “no antiretroviral effect”.

Turning to “ALB409-423: ALB409-423, which does not interact with CXCR4; control peptide in the asthma mouse model (VRYTKKVPQVSTPTL) [reference compound]”, the “interaction with CXCR4” value in the experiment with CXCR4 [1] is reported as “does not interact”. Besides, in the experiment with CXCR4 [2], the “CXCR4-dependent infiltration of neutrophils, lymphocytes and eosinophils into the airways” value is given as “no significant effects”; the infiltration of macrophages entry is on record as “no significant effects”. Take LVRYAKKV [408-415-T412A, LVRYAKKV]: in the experiment with X4 tropic HIV-1 NL4-3, the IC50 (in general, the concentration needed to halve the response being measured) was determined as 11.2 µM. In other words, the double-digit micromolar range.

In the case of “LLVRYTKKVPQVS [Derivative 407-419, LLVRYTKKVPQVS]”, the IC50 in the experiment with X4 tropic HIV-1 NL4-3 was 11.1 µM.

The compound “LVRYTKKVPQVSTP [Derivative 408-421, LVRYTKKVPQVSTP]” registered an IC50 with X4 tropic HIV-1 NL4-3 of 14 µM. “IVRYTKKVPQCS [408I-419 V418C, IVRYTKKVPQCS]” came in with an IC50 with X4 tropic HIV-1 NL4-3 of 3.69 µM. Against the preceding compound, the IC50 is about 3.8-fold lower.

“LVRYTKKVPQVST [Derivative 408-420, LVRYTKKVPQVST]” showed an IC50 with X4 tropic HIV-1 NL4-3 of 15.3 µM. Against the preceding compound, the IC50 is about 4.1-fold higher.

“LVRYTKKVPQ [Derivative 408-417, LVRYTKKVPQ]”: the IC50 in the experiment with X4 tropic HIV-1 NL4-3 is 19.8 µM. Take “LVRYTKKVPQVSTPT [Derivative 408-422, LVRYTKKVPQVSTPT]”: the IC50 in the experiment with X4 tropic HIV-1 NL4-3 was found to be 13.4 µM. The same measure, in the same setting: then “IVRYTKKVPQVS [Derivative 408I-419, IVRYTKKVPQVS]”, with 2.48 µM; and `CC[C@H](C)[C@H](N)C(=O)N[C@H](C(=O)N[C@@H](CCCNC(=N)N)C(=O)N[C@@H](Cc1c[nH]c2ccccc12)C(=O)N[C@H](C(=O)N[C@@H](CCCCN)C(=O)N[C@@H](CCCCN)C(=O)N[C@H](C(=O)N1CCC[C@H]1C(=O)N[C@@H](CCC(N)=O)C(=O)N[C@H](C(=O)N[C@@H](CSSC[C@H](NC(=O)[C@@H](NC(=O)[C@H](CCC(N)=O)NC(=O)[C@@H]1CCCN1C(=O)[C@@H](NC(=O)[C@H](CCCCN)NC(=O)[C@H](CCCCN)NC(=O)[C@@H](NC(=O)[C@H](Cc1c[nH]c2ccccc12)NC(=O)[C@H](CCCNC(=N)N)NC(=O)[C@@H](NC(=O)[C@@H](N)[C@@H](C)CC)C(C)C)[C@@H](C)O)C(C)C)C(C)C)C(=O)O)C(=O)O)C(C)C)C(C)C)[C@@H](C)O)C(C)C` [408I-419 WC01_x2, (IVRWTKKVPQVC)2] (I: H-IVRWTKKVPQVC-OH / II: H-IVRWTKKVPQVC-OH; disulfide I:12-II:12; N-terminus and C-terminus assumed), with 0.4 µM; and LVRYTKKV [Derivative 408-415, LVRYTKKV], with 25.7 µM. Same read-out and setting: then `CC[C@H](C)[C@H](N)C(=O)N[C@H](C(=O)N[C@@H](CCCNC(=N)N)C(=O)N[C@@H](Cc1c[nH]c2ccccc12)C(=O)N[C@H](C(=O)N[C@@H](CSSC[C@H](NC(=O)[C@@H](NC(=O)[C@H](Cc1c[nH]c2ccccc12)NC(=O)[C@H](CCCNC(=N)N)NC(=O)[C@@H](NC(=O)[C@@H](N)[C@@H](C)CC)C(C)C)[C@@H](C)O)C(=O)N[C@@H](CCCCN)C(=O)N[C@H](C(=O)N1CCC[C@H]1C(=O)N[C@@H](CCC(N)=O)C(=O)N[C@H](C(=O)N[C@@H](CO)C(=O)O)C(C)C)C(C)C)C(=O)N[C@@H](CCCCN)C(=O)N[C@H](C(=O)N1CCC[C@H]1C(=O)N[C@@H](CCC(N)=O)C(=O)N[C@H](C(=O)N[C@@H](CO)C(=O)O)C(C)C)C(C)C)[C@@H](C)O)C(C)C` [408I-419 WC02 x2, (IVRWTCKVPQVS)2] (I: H-IVRWTCKVPQVS-OH / II: H-IVRWTCKVPQVS-OH; disulfide I:6-II:6; N-terminus and C-terminus assumed), with 0.32 µM.
